Patent publication US6924314B2, “Compounds for the treatment of metabolic disorders” (Wellstat Therapeutics Corporation, priority 2001, dated 2005)

How the values were obtained:
[1] = test system: ob/ob obese diabetic mice; assay: Acute hypoglycemic effect in ob/ob obese diabetic mice: Expt 2; format: in vivo; settings: single oral dose 250 mg/kg; for change in vivo at 250 mg/kg: Mus musculus, 6 hours, read-out: % Reduction vs Control
Protocol: Male ob/ob mice (50-55 grams; blood glucose ˜300 mg/dL) were divided into groups of five animals each, and given a single oral dose of test drug (250 mg/kg) suspended in 0.5% carboxymethylcellulose vehicle; a control group received oral vehicle alone.
Six hours after oral administration of test drugs or vehicle (control), blood samples were obtained from a tail vein and glucose content was determined with a glucometer.

[2] = test system: ob/ob obese diabetic mice; assay: Acute hypoglycemic effect in ob/ob obese diabetic mice: Experiment 1; format: in vivo
Protocol: Male ob/ob diabetic mice were randomized into groups of five animals each. Body weights were 50-55 g and blood glucose was approximately 300 mg/dL in the fed state. A single oral dose of a test substance suspended in 0.5% carboxymethylcellulose vehicle was administered by gavage. Blood glucose was measured in blood droplets obtained by nicking a tail vein with a razor using glucometer test strips and a Glucometer Elite XL device (Bayer) at 0, 0.5, 2, 4, 6 and 18 hours after the initial dosing. A 10% reduction in blood glucose versus oral vehicle is considered a positive screening result. Blood glucose reductions were generally maximal at 6 hours after drug administration.

db/db mice [3] = assay: Antidiabetic effects in db/db mice, 2 weeks (Example I); format: in vivo, C57BL/Ksola mice; settings: for Glucose / Glucose (% of Control): nonfasting; for Free Fatty Acids ± SEM / Triglycerides ± SEM: serum
Description: db/db mice have a defect in leptin signaling, leading to hyperphagia, obesity and diabetes. Moreover, unlike ob/ob mice on a C57BL/6J background, db/db mice on a C57BL/KS background undergo failure of their insulin-producing pancreatic islet β cells, resulting in progression from hyperinsulinemia (associated with peripheral insulin resistance) to hypoinsulinemic diabetes.
(§1) A minimum of 7 days was allowed for adaptation after arrival.
Treatment cohorts were given daily oral doses of (1% hydroxypropylmethylcellulose), Compounds BI, BO, BP, BQ or BR for 2 weeks. At the end of the treatment period 100 μl of venous blood was withdrawn in a heparinized capillary tube from the retro-orbital sinus of db/db mice for serum chemistry analysis.

db/db mice [4] = assay: Antidiabetic effects in db/db mice, 2 weeks (Example J); format: in vivo, C57BL/Ksola mice
Description: db/db mice have a defect in leptin signaling, leading to hyperphagia, obesity and diabetes. Moreover, unlike ob/ob mice on a C57BL/6J background, db/db mice on a C57BL/KS background undergo failure of their insulin-producing pancreatic islet cells, resulting in progression from hyperinsulinemia (associated with peripheral insulin resistance) to hypoinsulinemic diabetes.
as §1
Treatment cohorts were given daily oral doses of Vehicle (1% hydroxypropylmethylcellulose), Compounds BI, BS, BT, BU, BV or Fenofibrate for 2 weeks. At the end of the treatment period 100 μl of venous blood was withdrawn in a heparinized capillary tube from the retro-orbital sinus of db/db mice for serum chemistry analysis.

[5] = test system: high fat-fed C57Bl/6J mice; assay: Circulating triglycerides, free fatty acids, insulin and leptin in high fat-fed C57Bl/6J mice; format: in vivo; settings: for Free Fatty Acids / Triglycerides: after 2 weeks of drug treatments
Description: The high fat-fed mouse is a model for the hypertriglyceridemia and high circulating fatty acid levels, and the insulin and leptin resistance that are found in people at risk for and with obesity, diabetes, cardiovascular disease and other disorders. Male C57Bl/6J mice, approximately 8 weeks of age, were randomly assigned into groups of 6 animals. […] Mice were fed a high-fat diet (diet number D12451, containing 45% of calories as fat (Research Diets, New Brunswick, N.J.)) for 6 weeks. […]

[6] = single oral dose by gavage, 6 hours
[7] = nonfasting, 93 mg/kg daily oral
[8] = serum, daily oral, dose per Table 12: 93 mg/kg

## O=C(O)CCC(=O)c1ccc(OCc2cc(F)ccc2F)cc1 [Compound AU, 4-(4-(2,5-Difluorobenzyloxy)phenyl)-4-oxobutyric acid]
[1]
  change in vivo at 250 mg/kg: -26.6 ± 2.8%
  Blood Glucose after 6 hours: 224 ± 26 mg/dL

## Cc1ccc(C)c(COc2ccc(C(=O)CCC(=O)O)cc2)c1 [Compound AT, 4-(4-(2,5-Dimethylbenzyloxy)phenyl)-4-oxobutyric acid]
[1]
  change in vivo at 250 mg/kg: -35.1 ± 2.3%
  Blood Glucose after 6 hours: 198 ± 28 mg/dL

## Cc1ccccc1COc1cccc(C(=O)CCC(=O)O)c1 [Compound AN, 4-(3-(2-Methylbenzyloxy)phenyl)-4-oxobutyric acid]
[1]
  change in vivo at 250 mg/kg: -50.2 ± 4.5%
  Blood Glucose after 6 hours: 152 ± 11 mg/dL

## O=C(O)CCC(=O)c1ccc(OCC2CC2)cc1 [Compound AX, 4-(4-((Cyclopropyl)-methoxy)phenyl)-4-oxobutyric acid]
[1]
  change in vivo at 250 mg/kg: -45.9 ± 2.4%
  Blood Glucose after 6 hours: 165 ± 23 mg/dL

## O=C(O)CCSCc1ccc(OCc2c(F)cccc2F)cc1 [Compound AZ, 3-[(4-(2,6-Difluorobenzyloxy)phenyl)-methylthio]propionic acid]
[1]
  change in vivo at 250 mg/kg: -39 ± 6.1%
  Blood Glucose after 6 hours: 186 ± 10 mg/dL

## O=C(O)CCC(=O)c1ccc(OCc2ccccc2Cl)cc1 [Compound AI, 4-(4-(2-Chlorobenzyloxy)phenyl)-4-oxobutyric acid]
[2]; [6]
  % Reduction vs Control: −14.1 ± 3.0%
  Blood Glucose after 6 hours: 255 ± 9 mg/dL

## COc1cccc(OC)c1COc1cccc(C(=O)CCC(=O)O)c1 [BO, 4-(3-(2,6-Dimethoxybenzyloxy)phenyl)-4-oxobutyric acid]
db/db mice [3]; 100 mg/kg daily oral
  Glucose: 586 ± 58 mg/dL
  Glucose (% of Control): 93 ± 9 % of Control
  Free Fatty Acids ± SEM: 3766.3 ± 234.5 µM
  Triglycerides ± SEM: 261.1 ± 24.3 mg/dL

## O=C(O)CCC(=O)c1ccc(OCc2ccc(F)cc2F)cc1 [Compound AV, 4-(4-(2,4-Difluorobenzyloxy)phenyl)-4-oxobutyric acid]
[1]
  change in vivo at 250 mg/kg: -32.1 ± 3%
  Blood Glucose after 6 hours: 207 ± 23 mg/dL

## Cc1cccc(C)c1COc1cccc(CCCC(=O)O)c1 [BS, 4-(3-(2,6-Dimethylbenzyloxy)phenyl)butyric acid]
db/db mice [4]; [7]
  Glucose: 372.0 ± 53.8 mg/dL
  Glucose (% of Control): 54 ± 8 % of Control
db/db mice [4]; [8]
  Free Fatty Acids ± SEM: 2867.4 ± 267.7 µM
  Triglycerides ± SEM: 132.0 ± 15.2 mg/dL

## O=C(O)CCC(=O)c1c(F)cccc1F [Compound AS, 4-(2,6-Difluorophenyl)-4-oxobutyric acid]
[1]
  change in vivo at 250 mg/kg: -45.2 ± 2%
  Blood Glucose after 6 hours: 167 ± 28 mg/dL

## Cc1cccc(C)c1COc1cccc(C(=O)CCC(=O)[O-])c1.[Na+] [Compound BL, 4-(3-(2,6-Dimethylbenzyloxy)phenyl)-4-oxobutyric acid Sodium salt]
[5]; 10 mg/kg oral gavage
  Free Fatty Acids: 1571.8 ± 100.9 µmol/L
  Triglycerides: 80 ± 12.2 mg/dL
[5]; 30 mg/kg oral gavage
  Free Fatty Acids: 1413.2 ± 228.7 µmol/L
  Triglycerides: 66.4 ± 13.7 mg/dL
[5]; 100 mg/kg oral gavage
  Free Fatty Acids: 1133.5 ± 132.7 µmol/L
  Triglycerides: 41 ± 5.6 mg/dL
[5]; oral gavage
  serum triglycerides and free fatty acids: effective at lowering
[5]; oral gavage, after 4 weeks of drug treatments (FIG. 1)
  insulin serum levels: effective at lowering
[5]; oral gavage, after 4 weeks of drug treatments (FIG. 2)
  leptin serum levels: effective at lowering

## O=C(O)CCC(=O)c1cccc(OCc2ccc(C(F)(F)F)cc2)c1 [BQ, 4-(3-(4-Trifluoromethylbenzyloxy)phenyl)-4-oxobutyric acid]
db/db mice [3]; 100 mg/kg daily oral
  Glucose: 473 ± 49 mg/dL
  Glucose (% of Control): 75 ± 7 % of Control
  Free Fatty Acids ± SEM: 2825.9 ± 110.9 µM
  Triglycerides ± SEM: 131.6 ± 20.7 mg/dL

## O=C(O)CCC(=O)c1ccc(OCc2ccccc2)cc1 [Compound AG, 4-(4-(Benzyloxy)phenyl)-4-oxobutyric acid]
[2]; [6]
  % Reduction vs Control: −25.3 ± 7.7%
  Blood Glucose after 6 hours: 222 ± 23 mg/dL

## CCOC(=O)CCC(=O)c1ccc(OCc2c(F)cccc2F)cc1 [Compound AQ, Ethyl 4-(4-(2,6-difluorobenzyloxyl)phenyl)-4-oxobutyrate]
[1]
  change in vivo at 250 mg/kg: -27.9 ± 4.2%
  Blood Glucose after 6 hours: 220 ± 17 mg/dL

## Cc1cccc(Nc2cc(Cl)nc(SCC(=O)O)n2)c1C [Wy14643, reference compound]
[5]; 10 mg/kg oral gavage
  Free Fatty Acids: 1512.2 ± 172.9 µmol/L
  Triglycerides: 70.6 ± 10.8 mg/dL
[5]; 30 mg/kg oral gavage
  Free Fatty Acids: 1676 ± 237 µmol/L
  Triglycerides: 88 ± 12.5 mg/dL
[5]; 100 mg/kg oral gavage
  Free Fatty Acids: 1839.8 ± 154.8 µmol/L
  Triglycerides: 88.4 ± 18.8 mg/dL

## Cc1ccccc1COc1ccc(C(=O)CCC(=O)O)cc1 [Compound AL, 4-(4-(2-Methylbenzyloxy)phenyl)-4-oxobutyric acid]
[2]; [6]
  % Reduction vs Control: −43.4 ± 4.4%
  Blood Glucose after 6 hours: 168 ± 13 mg/dL

## O=C(O)CCC(=O)c1cccc(OCC2CCC2)c1 [BR, 4-(3-((Cyclobutyl)-methoxy)phenyl)-4-oxobutyric acid]
db/db mice [3]; 82 mg/kg daily oral
  Glucose: 703 ± 64 mg/dL
  Glucose (% of Control): 111 ± 10 % of Control
  Free Fatty Acids ± SEM: 3653.4 ± 207.5 µM
  Triglycerides ± SEM: 253.0 ± 32.0 mg/dL

## Cc1cccc(C)c1COc1cccc(C(=O)CC(C)(C)C(=O)O)c1 [BP, 4-(3-(2,6-Dimethylbenzyloxy)phenyl)-4-oxo-2,2-dimethylbutyric acid]
db/db mice [3]; 100 mg/kg daily oral
  Glucose: 629 ± 86 mg/dL
  Glucose (% of Control): 99 ± 14 % of Control
  Free Fatty Acids ± SEM: 3772.6 ± 182.5 µM
  Triglycerides ± SEM: 302.1 ± 28.1 mg/dL

## O=C(O)CCC(=O)c1ccc(OCc2ccccc2C(F)(F)F)cc1 [Compound AY, 4-(4-(2-Trifluoromethylbenzyloxy)phenyl)-4-oxobutyric acid]
[1]
  change in vivo at 250 mg/kg: -39.3 ± 2.9%
  Blood Glucose after 6 hours: 185 ± 21 mg/dL

## CCOC(=O)CCC(=O)c1ccc(OCc2ccccc2F)cc1 [Compound AK, Ethyl 4-(4-(2-fluorobenzyloxyl)phenyl)-4-oxobutyrate]
[2]; [6]
  % Reduction vs Control: −29.3 ± 3.4%
  Blood Glucose after 6 hours: 210 ± 10 mg/dL

## O=C(O)CCC(=O)c1ccc(OCCc2cccs2)cc1 [Compound AR, 4-(4-(2-(2-Thienyl)ethoxy)phenyl)-4-oxobutyric acid]
[1]
  change in vivo at 250 mg/kg: -41.3 ± 4.2%
  Blood Glucose after 6 hours: 179 ± 14 mg/dL

## O=C(O)CCC(=O)c1ccc(OCCc2ccccc2F)cc1 [Compound AJ, 4-(4-(2-(2-Fluorophenyl)ethoxy)phenyl)-4-oxobutyric acid]
[2]; [6]
  % Reduction vs Control: −36.0 ± 4.7%
  Blood Glucose after 6 hours: 190 ± 14 mg/dL

## O=C(O)CCC(=O)c1ccc(OCc2ccccn2)cc1 [Compound AF, 4-(4-((2-Pyridinyl)-methoxy)phenyl)-4-oxobutyric acid]
[2]; [6]
  Blood Glucose after 6 hours: 314 ± 32 mg/dL
[2]; single oral dose, 6 hour reading normalized to initial blood glucose of this group, 416 ± 29 mg/dL
  % Reduction vs Control: −24.6 ± 7.7 %

## COc1ccccc1COc1ccc(C(=O)CCC(=O)O)cc1 [Compound AB, 4-(4-(2-Methoxybenzyloxy)phenyl)-4-oxobutyric acid]
[2]; [6]
  % Reduction vs Control: −39.1 ± 6.4%
  Blood Glucose after 6 hours: 181 ± 19 mg/dL
